Source: patent US9839618B2, “Compositions and methods relating to proliferative diseases” (The Penn State Research Foundation, priority 2010, dated 2017)

Columns and labels:
[1] = Toxicity assessment of leelamine; type: in vivo, Swiss Webster mice
Procedure: To assess toxicity, Swiss Webster (n=5) mice are intraperitoneally injected with 5 or 10 mg/kg body weight leelamine or with vehicle control (DMSO) every day for 4 weeks. Animals are weighed daily to ascertain the toxicity leading to changes in body weight. Blood is collected by cardiac puncture at the end of treatment and analyzed for the levels of ALP (alkaline phosphatase), ALT (alanine aminotransferase), AST (aspartate aminotransferase), CK (creatine kinase), CREA (creatinine) and GLU (glucose), parameters indicative of organ related toxicity, following systemic administration of 10-mg/Kg-body weight of leelamine, shown in FIG. 11. […] Vital organs including liver, spleen, kidney, intestine, lung and heart from control and experimental animals are collected at the end of the test period, formalin fixed, paraffin-embedded, hematoxylin/eosin stained and analyzed microscopically for changes in cellular morphology or tissue architecture as described in Sharma, A. et al., Clin Cancer Res, 2009, 15:1674-85; and Madhunapantula, S. V. et al., Mol Cancer Ther, 2008, 7:1297-308.

[2] = system: UACC 903 human melanoma cell tumors; test: Melanoma xenograft tumor development, UACC 903; type: in vivo, mice
Procedure: The efficacy of leelamine for inhibiting melanoma tumor development is evaluated on preexisting tumors formed following subcutaneous injection of cancer cells into nude mice. Tumor kinetics are measured by subcutaneous injection of 1.0×10^6 UACC 903 or 1205 Lu cells in 0.2 mL of DMEM supplemented with 10% FBS subcutaneously injected above both left and right rib cages of 3- to 4-wk-old female athymic nude-Foxn1^nu mice (Harlan Laboratories, Indianapolis, Ind.). Six days later, when a fully vascularized tumor (50-75 mm^3) has formed, mice are randomly divided into DMSO vehicle control and experimental groups (5 mice/group; 2 tumors/mouse) and treated intraperitoneally with 2.5-7.5 mg/kg body weight leelamine daily for 3-4 weeks. Body weight (grams) and dimensions of the developing tumors (mm^3) are measured at the time of drug treatment as described in Sharma, A. et al., Clin Cancer Res, 2009, 15:1674-85; and Madhunapantula, S. V. et al., Mol Cancer Ther, 2008, 7:1297-308.
In this example, leelamine (40, 60, or 80 mg/kg body weight) is administered orally to 4-6 weeks old nude mice bearing UACC903 melanoma cell tumors (50-100 mm^3). Sizes of developing tumors are measured. […] Values±S.E.M. (n=5)
Tumor kinetics are measured by subcutaneous injection of 1.0×10^6 UACC 903 or 1205 Lu cells in 0.2 mL of DMEM supplemented with 10% FBS subcutaneously injected above both left and right rib cages of 3- to 4-wk-old female athymic nude-Foxn1^nu mice (Harlan Laboratories, Indianapolis, Ind.). Six days later, when a fully vascularized tumor (50-75 mm^3) has formed, mice are randomly divided into control and experimental groups (5 mice/group; 2 tumors/mouse) and treated with 30-mg/kg body weight of empty liposome vehicle, abietic acid liposomes or Nanolipolee-007 intravenously each day for 3-4 weeks. Body weight (grams) and dimensions of the developing tumors (mm^3) are measured at the time of drug treatment.

[3] = system: UACC 903 xenograft tumors; test: Size and time matched tumors (Ki-67, TUNEL, CD31, Western blot); type: in vivo, mice
Source text: Rates of cell proliferation (using Ki-67), apoptosis (using terminal deoxynucleotidyl transferase-mediated dUTP nick-end labeling) and tumor angiogenesis (using CD31 staining) are quantified in time and size matched tumors treated with leelamine compared with DMSO treated control animals to identify the underlying mechanism by which leelamine inhibits melanoma tumor development using an established method described in Sharma, A. et al., Clin Cancer Res, 2009, 15:1674-85; Madhunapantula, S. V. et al., Mol Cancer Ther, 2008, 7:1297-308; Sharma, A. et al., Cancer Res, 2006, 66:8200-9; and Stahl, J. M. et al., Cancer Res, 2003, 63:2881-90. Size and time matched tumors at each time are compared to identify the first statistically quantifiable difference(s) affected by leelamine treatment in the rates of processes regulating tumor development i.e. cell proliferation, apoptosis or vascular development. […] Cell proliferation is measured using mouse anti-human Ki-67 staining from Pharmigen (San Diego, Calif.). Apoptosis rates are scored using “terminal deoxynucleotidyl transferase-mediated dUTP nick end labeling (TUNEL)” TMR Red Apoptosis kit from Roche (Mannheim, Germany). […] The number of Ki-67 and TUNEL positive cells is quantified as the percentage of total cells in tumors using the IP Lab imaging software program. For CD31, the area occupied by blood vessels is measured. […]

[4] = i.p. 10 mg/kg daily for 4 weeks

Compound: CC(C)c1ccc2c(c1)CCC1[C@](C)(CN)CCC[C@]21C (stereo partly drawn) [Leelamine, [(1R,4aS)-1,4a-dimethyl-7-(propan-2-yl)-1,2,3,4,4a,9,10,10a-octahydrophenanthren-1-yl]methanamine]
- blood ALP, ALT, AST, CK, CREA, GLU [1, 4]: No significant differences
- histology of liver, spleen, kidney, intestine, lung, heart [1, 4]: did not significantly alter cell morphology or overall structure
- body weights ([1]; i.p. 5 or 10 mg/kg every day for 4 weeks): no significant differences
- body weights of tumor bearing mice ([2]; UACC 903 and 1205 Lu xenograft nude mice, i.p. 2.5-7.5 mg/kg daily): no significant differences
- reduction of tumor volume, UACC 903 ([2]; intraperitoneally 2.5-7.5 mg/kg daily for 3-4 weeks, compared to DMSO vehicle): 61%
- reduction of tumor growth development, oral ([2]; orally 40, 60 or 80 mg/kg, compared to DMSO control): ~45%
- reduction in proliferating cells (Ki-67) ([3]; day 11, i.p. 7.5 mg/kg daily from day 6, vs DMSO): 50%
- active pAkt in tumor lysates (Western blot) ([3]; days 11, 13 and 15, treated from day 6): decreased active pAkt
